Results as given in patent US20180284095A1, “BIOMARKERS ASSOCIATED WITH LSD1 INHIBITORS AND USES THEREOF” (Oryzon Genomics, S.A., priority 2015, published 2018).

How the values were obtained:
[1] = biological target: T1, Human recombinant LSD1 protein (Homo sapiens, UniProt O60341); assay: LSD1 in vitro biochemical assay (Amplex Red, di-methylated H3-K4 peptide)
T1 construct: amino acids 158-end with N-terminal GST tag; purchased BPS Bioscience Inc 50100
Source text: The inhibitory activity of a compound of interest against LSD1 can be tested using the method described below: Human recombinant LSD1 protein from BPS Bioscience Inc (catalog reference number 50100: human recombinant LSD1, GenBank accession no. NM_015013, amino acids 158-end with N-terminal GST tag, MW: 103 kDa) was used. In order to monitor LSD1 enzymatic activity and/or its inhibition rate by a test compound, di-methylated H3-K4 peptide (Anaspec) was chosen as a substrate. The demethylase activity was estimated, under aerobic conditions, by measuring the release of H2O2 produced during the catalytic process, using the Amplex® Red hydrogen peroxide/peroxidase assay kit (Invitrogen).
Briefly, a fixed amount of LSD1 was incubated on ice for 15 minutes, in the absence and/or in the presence of at least eight 3-fold serial dilutions of the respective inhibitor (e.g., from 0 to 75 μM, depending on the inhibitor strength). Tranylcypromine (Biomol International) was used as a control for inhibition. Within the experiment, each concentration of inhibitor was tested in duplicate. After leaving the enzyme interacting with the inhibitor, KM of di-methylated H3-K4 peptide was added to each reaction and the experiment was left for 30 minutes at 37° C. in the dark. The enzymatic reactions were set up in a 50 mM sodium phosphate, pH 7.4 buffer. At the end of the incubation, Amplex® Red reagent and horseradish peroxidase (HPR) solution were added to the reaction according to the recommendations provided by the supplier (Invitrogen), and left to incubate for 5 extra minutes at room temperature in the dark. A 1 μM H2O2 solution was used as a control of the kit efficiency. The conversion of the Amplex® Red reagent to resorufin due to the presence of H2O2 in the assay, was monitored by fluorescence (excitation at 540 nm, emission at 590 nm) using a microplate reader (Infinite 200, Tecan). Arbitrary units were used to measure level of H2O2 produced in the absence and/or in the presence of inhibitor. The maximum demethylase activity of LSD1 was obtained in the absence of inhibitor and corrected for background fluorescence in the absence of LSD1. The IC50 value of each inhibitor was calculated with GraphPad Prism Software.

[2] = biological target: T2, Human recombinant monoamine oxidase MAO-A (Homo sapiens, UniProt P21397); assay: MAO-A fluorescence-based kynuramine assay; assay type: biochemical
T2 construct: purchased Sigma Aldrich
T2 sequence (P21397 1-527): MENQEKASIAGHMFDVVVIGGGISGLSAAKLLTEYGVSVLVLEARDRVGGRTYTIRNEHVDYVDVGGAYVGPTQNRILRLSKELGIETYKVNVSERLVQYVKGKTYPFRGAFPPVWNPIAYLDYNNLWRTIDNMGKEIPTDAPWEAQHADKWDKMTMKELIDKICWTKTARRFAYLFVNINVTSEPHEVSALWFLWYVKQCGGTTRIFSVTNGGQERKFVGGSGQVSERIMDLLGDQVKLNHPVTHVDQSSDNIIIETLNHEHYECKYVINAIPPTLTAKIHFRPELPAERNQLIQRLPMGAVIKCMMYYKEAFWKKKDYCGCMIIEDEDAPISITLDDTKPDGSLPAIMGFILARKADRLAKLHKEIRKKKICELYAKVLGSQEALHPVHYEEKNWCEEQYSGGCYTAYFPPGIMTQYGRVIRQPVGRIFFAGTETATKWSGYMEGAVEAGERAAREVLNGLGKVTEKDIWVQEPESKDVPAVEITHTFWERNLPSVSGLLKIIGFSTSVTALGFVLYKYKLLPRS
Source text: LSD1 has a fair degree of structural similarity and amino acid identity/homology with the flavin-dependent amine oxidases monoamine oxidase A (MAO-A) and B (MAO-B). To determine the level of selectivity of a LSD1 inhibitor versus MAO-A and MAO-B, the inhibitory activity of a compound of interest against MAO-A and MAO-B can be tested using the method described below: Human recombinant monoamine oxidase proteins MAO-A and MAO-B were purchased from Sigma Aldrich.
MAOs catalyze the oxidative deamination of primary, secondary and tertiary amines. In order to monitor MAO enzymatic activities and/or their inhibition rate by inhibitor(s) of interest, a fluorescence-based (inhibitor)-screening assay was set up. 3-(2-Aminophenyl)-3-oxopropanamine (kynuramine dihydrobromide, Sigma Aldrich), a non fluorescent compound was chosen as a substrate. Kynuramine is a non-specific substrate for both MAO-A and MAO-B activities. While undergoing oxidative deamination by MAO activities, kynuramine is converted into 4-hydroxyquinoline (4-HQ), a resulting fluorescent product.
The monoamine oxidase activity was estimated by measuring the conversion of kynuramine into 4-hydroxyquinoline. Assays were conducted in 96-well black plates with clear bottom (Corning) in a final volume of 100 μL. The assay buffer was 100 mM HEPES, pH 7.5. Each experiment was performed in duplicate within the same experiment.
Briefly, a fixed amount of MAO was incubated on ice for 15 minutes in the reaction buffer, in the absence and/or in the presence of at least eight 3-fold serial dilutions each. Clorgyline and Deprenyl (Sigma Aldrich) was used as a control for specific inhibition of MAO-A and MAO-B respectively.
After leaving the enzyme(s) interacting with the inhibitor, KM of kynuramine was added to each reaction for MAO-B and MAO-A assay respectively, and the reaction was left for 1 hour at 37° C. in the dark. The oxidative deamination of the substrate was stopped by adding 50 μL of NaOH 2N. The conversion of kynuramine to 4-hydroxyquinoline, was monitored by fluorescence (excitation at 320 nm, emission at 360 nm) using a microplate reader (Infinite 200, Tecan). Arbitrary units were used to measure levels of fluorescence produced in the absence and/or in the presence of inhibitor.
The maximum of oxidative deamination activity was obtained by measuring the amount of 4-hydroxyquinoline formed from kynuramine deamination in the absence of inhibitor and corrected for background fluorescence in the absence of MAO enzymes. The IC50 values of each inhibitor were calculated with GraphPad Prism Software.

Row | Molecule | IC50 [1] [µM] | IC50 [2] [µM]
1 | NC(=O)CN[C@H]1C[C@@H]1c1ccc(OCc2ccccc2)cc1 (racemic) [Compound 3, 2-(((trans)-2-(4-(benzyloxy)phenyl)cyclopropyl)amino)acetamide] | 0.16 | 2.3
2 | CN1CCN(C(=O)CN[C@H]2C[C@@H]2c2ccc(OCc3ccccc3)cc2)CC1 (racemic) [Compound 4, 2-(((trans)-2-(4-(benzyloxy)phenyl)cyclopropyl)amino)-1-(4-methylpiperazin-1-yl)ethan-1-one] |  | 4.6
3 | (+) 5-((((trans)-2-(4-(benzyloxy)phenyl)cyclopropyl)amino)methyl)-1,3,4-oxadiazol-2-amine [Compound 2] | 2.3 | 3.8
4 | N[C@H]1CCN(CCN[C@H]2C[C@@H]2c2ccc(-c3cccc(C(F)(F)F)c3)cc2)C1 (racemic) [Compound 5, (S)-1-(2-(((trans)-2-(3′-(trifluoromethyl)-[1,1′-biphenyl]-4-yl)cyclopropyl)amino)ethyl)pyrrolidin-3-amine] | 0.06 | 3.4
5 | (−) 5-((((trans)-2-(4-(benzyloxy)phenyl)cyclopropyl)amino)methyl)-1,3,4-oxadiazol-2-amine [Compound 1] | 0.09 | 5.3
